From BigSolDB 2.1

Compound: C=C(C)[C@@H]1CC[C@]2(CO)CC[C@]3(C)[C@H](CC[C@@H]4[C@@]5(C)CC[C@H](O)C(C)(C)[C@@H]5CC[C@]43C)[C@@H]12
- solubility (mole fraction) (in acetone, 278.2 K): 0.000556
- solubility (mole fraction) (in acetone, 288.2 K): 0.000866
- solubility (mole fraction) (in acetone, 298.2 K): 0.00158
- solubility (mole fraction) (in acetone, 308.2 K): 0.00227
- solubility (mole fraction) (in chloroform, 278.2 K): 0.0026
- solubility (mole fraction) (in chloroform, 288.2 K): 0.00338
- solubility (mole fraction) (in chloroform, 298.2 K): 0.00437
- solubility (mole fraction) (in chloroform, 308.2 K): 0.00511
- solubility (mole fraction) (in cyclohexane, 283.2 K): 1.68e-05
- solubility (mole fraction) (in cyclohexane, 288.2 K): 2.7e-05
- solubility (mole fraction) (in cyclohexane, 298.2 K): 6.34e-05
- solubility (mole fraction) (in cyclohexane, 308.2 K): 0.000167
- solubility (mole fraction) (in dichloromethane, 278.2 K): 0.00079
- solubility (mole fraction) (in dichloromethane, 283.2 K): 0.000837
- solubility (mole fraction) (in dichloromethane, 288.2 K): 0.000897
- solubility (mole fraction) (in dichloromethane, 298.2 K): 0.000991
- solubility (mole fraction) (in ethanol, 278.2 K): 0.000579
- solubility (mole fraction) (in ethanol, 288.2 K): 0.000658
- solubility (mole fraction) (in ethanol, 298.2 K): 0.000898
- solubility (mole fraction) (in ethanol, 308.2 K): 0.00113
- solubility (mole fraction) (in ethyl acetate, 278.2 K): 0.000963
- solubility (mole fraction) (in ethyl acetate, 288.2 K): 0.00155
- solubility (mole fraction) (in ethyl acetate, 298.2 K): 0.00207
- solubility (mole fraction) (in ethyl acetate, 308.2 K): 0.00305
- solubility (mole fraction) (in ethyl formate, 278.2 K): 0.000301
- solubility (mole fraction) (in ethyl formate, 288.2 K): 0.000316
- solubility (mole fraction) (in ethyl formate, 298.2 K): 0.000333
- solubility (mole fraction) (in ethyl formate, 308.2 K): 0.000395
- solubility (mole fraction) (in methanol, 278.2 K): 0.000179
- solubility (mole fraction) (in methanol, 288.2 K): 0.000248
- solubility (mole fraction) (in methanol, 298.2 K): 0.000328
- solubility (mole fraction) (in methanol, 308.2 K): 0.000397
- solubility (mole fraction) (in methyl acetate, 278.2 K): 0.000598
- solubility (mole fraction) (in methyl acetate, 288.2 K): 0.000705
- solubility (mole fraction) (in methyl acetate, 298.2 K): 0.000797
- solubility (mole fraction) (in methyl acetate, 308.2 K): 0.000917
- solubility (mole fraction) (in methyl formate, 278.2 K): 0.000187
- solubility (mole fraction) (in methyl formate, 283.2 K): 0.000212
- solubility (mole fraction) (in methyl formate, 288.2 K): 0.000257
- solubility (mole fraction) (in methyl formate, 298.2 K): 0.000316
- solubility (mole fraction) (in n-butanol, 278.2 K): 0.00181
- solubility (mole fraction) (in n-butanol, 288.2 K): 0.00213
- solubility (mole fraction) (in n-butanol, 298.2 K): 0.00238
- solubility (mole fraction) (in n-butanol, 308.2 K): 0.00271
- solubility (mole fraction) (in n-hexanol, 278.2 K): 0.000744
- solubility (mole fraction) (in n-hexanol, 288.2 K): 0.000846
- solubility (mole fraction) (in n-hexanol, 298.2 K): 0.00102
- solubility (mole fraction) (in n-hexanol, 308.2 K): 0.00127
- solubility (mole fraction) (in n-pentanol, 278.2 K): 0.00095
- solubility (mole fraction) (in n-pentanol, 288.2 K): 0.0012
- solubility (mole fraction) (in n-pentanol, 298.2 K): 0.00143
- solubility (mole fraction) (in n-pentanol, 308.2 K): 0.00171
- solubility (mole fraction) (in n-propanol, 278.2 K): 0.00113
- solubility (mole fraction) (in n-propanol, 288.2 K): 0.00127
- solubility (mole fraction) (in n-propanol, 298.2 K): 0.00146
- solubility (mole fraction) (in n-propanol, 308.2 K): 0.0016
